Reference: patent US20020137929A1, “1 - (3-heterocyclylphenyl) isothiourea, -isourea, -guanidine and -amidine herbicidal agents” (Intellectual Property Department, BASF Aktiengesellschaft, priority 1998, published 2002)

Assays:
ABUTH (Velvetleaf) = assay: Postemergence herbicidal evaluation; type: in vivo, Abutilon theophrasti; settings: for ABUTH herbicidal rating: postemergence
Outline: (§1)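 Herbicidal effect was judged by eye on a 0–9 scale covering stand, vigor, deformity, size and chlorosis, compared with controls, four to five weeks after seedlings about two weeks old were sprayed (40 psi, ~0.0156–0.500 kg/ha).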

GALAP (Galium) [1] = assay: Postemergence herbicidal evaluation; type: in vivo, Galium aparine; settings: for GALAP herbicidal rating: postemergence
Outline: as §1

GALAP (Galium) [2] = assay: Preemergence herbicidal evaluation; type: in vivo, Galium aparine; settings: rated 4-5 weeks after treatment
Outline: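 Scores (0–9) reflect visual comparison with control plants for stand, vigor, malformation, size and chlorosis. Compound was applied to the soil after sowing, before emergence, as an aqueous acetone spray (about 0.0156–0.500 kg/ha), and cups were kept in a greenhouse for 4–5 weeks.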

MOOVA (Monochoria) = assay: Postemergence weed control under flooded paddy conditions; type: in vivo, Monochoria vaginalis; settings: postemergence weeds
Outline: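 With weeds 3 to 5 cm tall and rice at the 1.5 to 2.5 leaf stage, containers were flooded and water held 1.5 to 3 cm above soil. Compounds in 50/50 v/v aqueous/acetone went into the flood water at about 0.0313 to 0.500 kg/ha a.i. Effects were visually rated 0–9 against controls after three to four weeks in the greenhouse.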

[3] = rate 0.0313 kg/ha, 3-4 weeks after treatment
[4] = rate 0.1250 kg/ha, 3-4 weeks after treatment
[5] = rate 0.2500 kg/ha, 3-4 weeks after treatment
[6] = rate 0.0625 kg/ha, 3-4 weeks after treatment
[7] = Rate 0.0313 kg/ha, rated 3 to 4 weeks after treatment
[8] = Rate 0.0625 kg/ha, rated 3 to 4 weeks after treatment
[9] = Rate 0.1250 kg/ha, rated 3 to 4 weeks after treatment
[10] = Rate 0.2500 kg/ha, rated 3 to 4 weeks after treatment

Row | Structure (SMILES) | Postemergence herbicidal rating ABUTH (ABUTH (Velvetleaf); Rate 0.0158 kg/ha) | Postemergence herbicidal rating ABUTH (ABUTH (Velvetleaf); Rate 0.0315 kg/ha) | Postemergence herbicidal rating ABUTH (ABUTH (Velvetleaf); Rate 0.0630 kg/ha) | Postemergence herbicidal rating GALAP (GALAP (Galium) [1]; Rate 0.0158 kg/ha) | Postemergence herbicidal rating GALAP (GALAP (Galium) [1]; Rate 0.0315 kg/ha) | Postemergence herbicidal rating GALAP (GALAP (Galium) [1]; Rate 0.0630 kg/ha) | Preemergence herbicidal rating GALAP (GALAP (Galium) [2]; rate 0.0156 kg/ha) | Preemergence herbicidal rating GALAP (GALAP (Galium) [2]; rate 0.0313 kg/ha) | Preemergence herbicidal rating GALAP (GALAP (Galium) [2]; rate 0.0625 kg/ha) | Preemergence herbicidal rating GALAP (GALAP (Galium) [2]; rate 0.1250 kg/ha) | Preemergence herbicidal rating GALAP (GALAP (Galium) [2]; rate 0.2500 kg/ha) | Herbicidal rating MOOVA (MOOVA (Monochoria); [3]) | Herbicidal rating MOOVA (MOOVA (Monochoria); [4]) | Herbicidal rating MOOVA (MOOVA (Monochoria); [5]) | Herbicidal rating MOOVA (MOOVA (Monochoria); [6]) | Herbicidal rating MOOVA (MOOVA (Monochoria); [7]) | Herbicidal rating MOOVA (MOOVA (Monochoria); [8]) | Herbicidal rating MOOVA (MOOVA (Monochoria); [9]) | Herbicidal rating MOOVA (MOOVA (Monochoria); [10]) | ABUTH herbicidal rating (ABUTH (Velvetleaf); rate 0.0158 kg/ha) | other results
1 | Cn1c(C(F)(F)F)cc(=O)n(-c2cc(N=C3SCC(=O)N3CC(=O)OC(C)(C)C)c(Cl)cc2F)c1=O [Compound 43, tert-Butyl 2-{{2-chloro-5-[3,6-dihydro-3-methyl-2,6-dioxo-4-(trifluoromethyl)-1(2H)-pyrimidinyl]-4-fluorophenyl}imino}-4-oxo-3-thiazolidineacetate] | 9.0 | 9.0 | 9.0 | 0.0 | 4.0 | 4.0 | 0.0 | 0.0 | 0.0 | 9.0 | 9.0 | 9.0 | 9.0 | 9.0 |  |  |  |  |  |  | Herbicidal rating MOOVA (MOOVA (Monochoria); rate 0.0825 kg/ha, 3-4 weeks after treatment): 9.0
2 | CCOC(=O)CN1C(=O)CS(=O)(=O)C1=Nc1cc(-n2c(=O)cc(C(F)(F)F)n(C)c2=O)c(F)cc1Cl [Compound 46, 2-{{2-Chloro-5-[3,6-dihydro-3-methyl-2,6-dioxo-4-(trifluoromethyl)-1(2H)-pyrimidinyl]-4-fluoro-phenyl}imino}-4-oxo-3-thiazolidineacetic acid, ethyl ester, 1,1-dioxide] |  |  |  |  |  |  |  |  |  | 0.0 | 0.0 | 3.0 | 6.0 | 7.0 | 4.0 |  |  |  |  |  | Postemergence herbicidal rating ABUTH (ABUTH (Velvetleaf); Rate 0.0313 kg/ha): 4.0; Postemergence herbicidal rating ABUTH (ABUTH (Velvetleaf); Rate 0.0625 kg/ha): 9.0; Postemergence herbicidal rating GALAP (GALAP (Galium) [1]; Rate 0.0313 kg/ha): 0.0; Postemergence herbicidal rating GALAP (GALAP (Galium) [1]; Rate 0.0625 kg/ha): 0.0
3 | CCOC(=O)CN1C(=O)C(CCO)S/C1=N/c1cc(-n2c(=O)cc(C(F)(F)F)n(C)c2=O)c(F)cc1Cl (stereo not drawn) [Compound 49, Ethyl 2-{{2-chloro-5-[3,6-dihydro-3-methyl-2,6-dioxo-4-(trifluoromethyl)-1(2H)-pyrimidinyl]-4-fluorophenyl}imino}-5-(hydroxyethyl)-4-oxo-3-thiazolidineacetate] |  |  |  |  |  |  | 0.0 | 0.0 | 7.0 | 7.0 | 9.0 | 9.0 | 9.0 | 9.0 | 9.0 |  |  |  |  |  | Postemergence herbicidal rating ABUTH (ABUTH (Velvetleaf); Rate 0.0313 kg/ha): 9.0; Postemergence herbicidal rating ABUTH (ABUTH (Velvetleaf); Rate 0.0625 kg/ha): 9.0; Postemergence herbicidal rating ABUTH (ABUTH (Velvetleaf); rate 0.0156 kg/ha): 9.0; Postemergence herbicidal rating GALAP (GALAP (Galium) [1]; Rate 0.0313 kg/ha): 4.0; Postemergence herbicidal rating GALAP (GALAP (Galium) [1]; Rate 0.0625 kg/ha): 4.0; Postemergence herbicidal rating GALAP (GALAP (Galium) [1]; rate 0.0156 kg/ha): 2.0
4 | CCOC(=O)CN1C(=O)C(CC(=O)OC)S/C1=N/c1cc(-n2c(=O)cc(C(F)(F)F)n(C)c2=O)c(F)cc1Cl (stereo not drawn) [Compound 54, 2-{{2-Chloro-5-[3,6-dihydro-3-methyl-2,6-dioxo-4-(trifluoromethyl)-1(2H)-pyrimidinyl]-4-fluorophenyl}imino}-4-oxo-3,5-thiazolidinediacetic acid, 3-ethyl methyl ester] | 9.0 | 9.0 | 9.0 | 6.0 | 9.0 | 9.0 | 0.0 | 0.0 | 0.0 | 9.0 | 9.0 | 0.0 | 6.0 | 6.0 | 0.0 |  |  |  |  |  | 
5 | C=CCN1C(=O)C(CC(=O)OC)SC1=Nc1cc(-n2c(=O)cc(C(F)(F)F)n(C)c2=O)c(F)cc1Cl (stereo not drawn) [Compound 64, Methyl 3-allyl-2-{{2-chloro-5-[3,6-dihydro-3-methyl-2,6-dioxo-4-(trifluoromethyl)-1(2H)-pyrimidinyl]-4-fluorophenyl}imino}-4-oxo-5-thiazolidineacetate] | 9.0 | 9.0 | 9.0 | 5.0 | 7.0 | 7.0 | 0.0 | 0.0 | 1.0 |  | 7.0 |  |  |  |  | 7.0 | 9.0 | 9.0 | 9.0 |  | 
6 | C=CCOC(=O)CC1SC(=Nc2cc(-n3c(=O)cc(C(F)(F)F)n(C)c3=O)c(F)cc2Cl)N(CC=C)C1=O (stereo not drawn) [Compound 65, Allyl 3-allyl-2-{(2-chloro-5-[3,6-dihydro-3-methyl-2,6-dioxo-4-(trifluoromethyl)-1(2H)-pyrimidinyl]-4-fluorophenyl}imino}-4-oxo-5-thiazolidineacetate] |  |  |  |  |  |  | 0.0 | 0.0 | 0.0 | 1.0 | 9.0 |  |  |  |  | 9.0 | 9.0 | 9.0 | 9.0 | 9.0 | ABUTH herbicidal rating (ABUTH (Velvetleaf); rate 0.0315 kg/ha): 9.0; ABUTH herbicidal rating (ABUTH (Velvetleaf); rate 0.0630 kg/ha): 9.0; GALAP herbicidal rating (GALAP (Galium) [1]; rate 0.0158 kg/ha): 2.0; GALAP herbicidal rating (GALAP (Galium) [1]; rate 0.0315 kg/ha): 5.0; GALAP herbicidal rating (GALAP (Galium) [1]; rate 0.0630 kg/ha): 9.0
7 | C#CCOC(=O)CC1SC(=Nc2cc(-n3c(=O)cc(C(F)(F)F)n(C)c3=O)c(F)cc2Cl)N(CC=C)C1=O (stereo not drawn) [Compound 67, 2-Propynyl 3-allyl-2-{{2-chloro-5-[3,6-dihydro-3-methyl-2,6-dioxo-4-(trifluoromethyl)-1(2H)-pyrimidinyl]-4-fluorophenyl}imino}-4-oxo-5-thiazolidineacetate] |  |  |  |  |  |  | 0.0 | 0.0 | 0.0 | 1.0 | 0.0 |  |  |  |  | 9.0 | 9.0 | 9.0 | 9.0 | 5.0 | ABUTH herbicidal rating (ABUTH (Velvetleaf); rate 0.0315 kg/ha): 9.0; ABUTH herbicidal rating (ABUTH (Velvetleaf); rate 0.0630 kg/ha): 9.0; GALAP herbicidal rating (GALAP (Galium) [1]; rate 0.0158 kg/ha): 2.9; GALAP herbicidal rating (GALAP (Galium) [1]; rate 0.0315 kg/ha): 6.0; GALAP herbicidal rating (GALAP (Galium) [1]; rate 0.0630 kg/ha): 5.0
8 | CCOC(=O)CN1C(=O)C(CC(=O)Nc2ccccc2)SC1=Nc1cc(-n2c(=O)cc(C(F)(F)F)n(C)c2=O)c(F)cc1Cl (stereo not drawn) [Compound 68, Ethyl 2-{{2-chloro-5-[3,6-dihydro-3-methyl-2,6-dioxo-4-(trifluoromethyl)-1(2H)-pyrimidinyl]-4-fluorophenyl}imino}-4-oxo-5-[(phenylcarbamoyl)-methyl]-3-thiazolidineacetate] |  |  |  |  |  |  | 0.0 | 0.0 | 0.0 | 0.0 | 0.0 |  |  |  |  | 3.0 | 9.0 | 9.0 | 9.0 | 7.0 | ABUTH herbicidal rating (ABUTH (Velvetleaf); rate 0.0315 kg/ha): 9.0; ABUTH herbicidal rating (ABUTH (Velvetleaf); rate 0.0630 kg/ha): 7.0; GALAP herbicidal rating (GALAP (Galium) [1]; rate 0.0158 kg/ha): 2.0; GALAP herbicidal rating (GALAP (Galium) [1]; rate 0.0315 kg/ha): 3.0; GALAP herbicidal rating (GALAP (Galium) [1]; rate 0.0630 kg/ha): 4.0
